# Assay: UV-Vis absorption spectra of co-aggregate (J-aggregate) formation
# Assay type: physicochemical
# Details: non-aggregated dye
# Method: An aqueous solution of 0.1% (w/v) PEI (1.8, 10, 70, or 750 kDa) is gently stirred, and an aqueous solution of 0.02% (w/v) TITCC is instantly added. This composition is further agitated at about 4° C. for about 30-45 minutes under UV protection. The aggregation progress is monitored by UV-Vis spectra starting from 900 nm down to 600 nm.
# This is confirmed by the absence of the starting wavelength of 756 nm of the pure dye, and by the new wavelength maximum at approximately 800 nm from the J-aggregates. In case of 100 and 125% surplus of PEI, the two wavelength maxima indicate that the dye is only partially bound as J-aggregate. Therefore, the wavelength of the pure dye and the wavelength maximum of the J-aggregates can be detected side by side. All measured samples contained the same concentration of dye. The absorption is reduced due to the quenching effects in the J-aggregates. UV-Vis spectra were recorded by UV-2401-PC spectrophotometer (Shimadzu Corp.).
# This may be due to a more compact dye-polymer-complex if fewer cationic charges for stabilisation are available. Vice versa, the complexes are less compact having a greater amount of polymer which results in a smaller shift to approximately 795 nm.
smiles,measurement,value
"CC(C=CC=C1N(CCS(=O)(=O)[O-])c2ccc(S(=O)(=O)[O-])cc2C1(C)C)=CC=CC1=[N+](CCS(=O)(=O)[O-])c2ccc(S(=O)(=O)[O-])cc2C1(C)C.[Na+].[Na+].[Na+] [TITCC, trisodium-3,3-dimethyl-2-{4-methyl-7-[3,3-dimethyl-5-sulfonato-1-(2-sulfonatoethyl)-3H-indolium-2-yl]hepta-2,4,6-trien-1-ylidene}-1-(2-sulfonatoethyl)-2,3-dihydro-1H-indole-5-sulfonate, inner salt]",absorption wavelength maximum of the pure dye,756 nm
